Columns and labels:
Format in all cases: functional
[1] = test system: L1210; experiment: Antitumor activity was assessed against L1210 tumors in B6D2F1 mouse by inoculation of 10e5 tumor cells through iv route and mean death of animals (treated/control) was reported at 20 mg/kg peroral dose; conditions: route oral
[2] = test system: L1210; experiment: Antitumor activity was assessed against L1210 tumors in B6D2F1 mouse by inoculation of 10e5 tumor cells through iv route and mean death of animals (treated/control) was reported at 10 mg/kg peroral dose; conditions: route oral
[3] = Antitumor activity was assessed against TLX5 tumors in CBA/CA mouse by inoculation of 2 x 10e5 tumor cells through sc route and mean death of animals (treated/control) was reported at 20 mg/kg dose; conditions: route subcutaneous
[4] = test system: L1210; experiment: Antitumor activity was assessed against L1210 tumors in B6D2F1 mouse by inoculation of 10e5 tumor cells through iv route and number of Survivors to duration was reported at 20 mg/kg peroral dose; 6/7; conditions: route oral
[5] = test system: L1210; experiment: Antitumor activity was assessed against L1210 tumors in B6D2F1 mouse by inoculation of 10e5 tumor cells through iv route and number of Survivors to duration was reported at 10 mg/kg peroral dose; 1/7; conditions: route oral
[6] = test system: L1210; experiment: Antitumor activity was assessed against L1210 tumors in B6D2F1 mouse by inoculation of 10e5 tumor cells through iv route and mean death of animals (treated/control) was reported at 5 mg/kg peroral dose; conditions: route oral
[7] = Antitumor activity was assessed against TLX5 tumors in CBA/CA mouse by inoculation of 2 x 10e5 tumor cells through sc route and number of Survivors to duration was reported at 20 mg/kg ip dose; 5/5; conditions: route subcutaneous
[8] = test system: L1210; experiment: Antitumor activity was assessed against L1210 tumors in B6D2F1 mouse by inoculation of 10e5 tumor cells through iv route and mean death of animals (treated/control) was reported at 2.5 mg/kg peroral dose; conditions: route oral
[9] = Antitumor activity was assessed against TLX5 tumors in CBA/CA mouse by inoculation of 2 x 10e5 tumor cells through sc route and mean death of animals (treated/control) was reported at 10 mg/kg dose; conditions: route subcutaneous
[10] = Antitumor activity was assessed against TLX5 tumors in CBA/CA mouse by inoculation of 2 x 10e5 tumor cells through sc route and mean death of animals (treated/control) was reported at 40 mg/kg dose; conditions: route subcutaneous
[11] = Antitumor activity was assessed against TLX5 tumors in CBA/CA mouse by inoculation of 2 x 10e5 tumor cells through sc route and mean death of animals (treated/control) was reported at 5 mg/kg dose; conditions: route subcutaneous
[12] = test system: L1210; experiment: Antitumor activity was assessed against L1210 tumors in B6D2F1 mouse by inoculation of 10e5 tumor cells through intravenous route and mean death of animals (treated/control) was reported at 80 mg/kg peroral dose; conditions: route oral
[13] = test system: L1210; experiment: Antitumor activity was assessed against L1210 tumors in B6D2F1 mouse by inoculation of 10e5 tumor cells through intravenous route and mean death of animals (treated/control) was reported at 160 mg/kg peroral dose; conditions: route oral
[14] = test system: L1210; experiment: Antitumor activity was assessed against L1210 tumors in B6D2F1 mouse by inoculation of 10e5 tumor cells through intravenous route and mean death of animals (treated/control) was reported at 40 mg/kg peroral dose; conditions: route oral
[15] = test system: L1210; experiment: Antitumor activity was assessed against L1210 tumors in B6D2F1 mouse by inoculation of 10e5 tumor cells through intravenous route and number of Survivors to duration was reported at 40 mg/kg peroral dose; 5/7; conditions: route oral
[16] = test system: L1210; experiment: Antitumor activity was assessed against L1210 tumors in B6D2F1 mouse by inoculation of 10e5 tumor cells through intravenous route and mean death of animals (treated/control) was reported at 10 mg/kg peroral dose; conditions: route oral
[17] = test system: L1210; experiment: Antitumor activity was assessed against L1210 tumors in B6D2F1 mouse by inoculation of 10e5 tumor cells through intravenous route and mean death of animals (treated/control) was reported at 20 mg/kg peroral dose; conditions: route oral
[18] = Antitumor activity was assessed against TLX5 tumors in CBA/CA mouse by inoculation of 2 x 10e5 tumor cells through sc route and mean death of animals (treated/control) was reported at 40 mg/kg ip dose; conditions: route subcutaneous
[19] = test system: L1210; experiment: Antitumor activity was assessed against L1210 tumors in B6D2F1 mouse by inoculation of 10e5 tumor cells through iv route and number of Survivors to duration was reported at 200 mg/kg po dose; 10/10
[20] = Antitumor activity was assessed against TLX5 tumors in CBA/CA mouse by inoculation of 2 x 10e5 tumor cells through sc route and mean death of animals (treated/control) was reported at 320 mg/kg ip dose; conditions: route subcutaneous
[21] = Antitumor activity was assessed against TLX5 tumors in CBA/CA mouse by inoculation of 2 x 10e5 tumor cells through sc route and mean death of animals (treated/control) was reported at 160 mg/kg ip dose; conditions: route subcutaneous
[22] = Antitumor activity was assessed against TLX5 tumors in CBA/CA mouse by inoculation of 2 x 10e5 tumor cells through sc route and mean death of animals (treated/control) was reported at 80 mg/kg ip dose; conditions: route subcutaneous
[23] = test system: L1210; experiment: Antitumor activity was assessed against L1210 tumors in B6D2F1 mouse by inoculation of 10e5 tumor cells through iv route and mean death of animals (treated/control) was reported at 200 mg/kg po dose
[24] = test system: L1210; experiment: Antitumor activity was assessed against L1210 tumors in B6D2F1 mouse by inoculation of 10e5 tumor cells through iv route and mean death of animals (treated/control) was reported at 100 mg/kg po dose
[25] = test system: L1210; experiment: Antitumor activity was assessed against L1210 tumors in B6D2F1 mouse by inoculation of 10e5 tumor cells through iv route and mean death of animals (treated/control) was reported at 50 mg/kg po dose
[26] = Antitumor activity was assessed against TLX5 tumors in CBA/CA mouse by inoculation of 2 x 10e5 tumor cells through sc route and number of Survivors to duration was reported at 160 mg/kg ip dose; 1/5; conditions: route subcutaneous
[27] = test system: L1210; experiment: Antitumor activity was assessed against L1210 tumors in B6D2F1 mouse by inoculation of 10e5 tumor cells through iv route and mean death of animals (treated/control) was reported at 25 mg/kg po dose
[28] = Antitumor activity was assessed against TLX5 tumors in CBA/CA mouse by inoculation of 2 x 10e5 tumor cells through sc route and mean death of animals (treated/control) was reported at 20 mg/kg ip dose; conditions: route subcutaneous
[29] = test system: L1210; experiment: Antitumor activity was assessed against L1210 tumors in B6D2F1 mouse by inoculation of 10e5 tumor cells through iv route and number of Survivors to duration was reported at 200 mg/kg po dose; 1/7
[30] = test system: L1210; experiment: Antitumor activity was assessed against L1210 tumors in B6D2F1 mouse by inoculation of 10e5 tumor cells through iv route and number of Survivors to duration was reported at 100 mg/kg po dose; 5/7
[31] = Antitumor activity was assessed against TLX5 tumors in CBA/CA mouse by inoculation of 2 x 10e5 tumor cells through sc route and mean death of animals (treated/control) was reported at 10 mg/kg ip dose; conditions: route subcutaneous
[32] = test system: L1210; experiment: Antitumor activity was assessed against L1210 tumors in B6D2F1 mouse by inoculation of 10e5 tumor cells through iv route and number of Survivors to duration was reported at 40 mg/kg peroral dose; 2/7; conditions: route oral
[33] = Antitumor activity was assessed against TLX5 tumors in CBA/CA mouse by inoculation of 2 x 10e5 tumor cells through subcutaneous route and mean death of animals (treated/control) was reported at 80 mg/kg dose
[34] = Antitumor activity was assessed against TLX5 tumors in CBA/CA mouse by inoculation of 2 x 10e5 tumor cells through sc route and number of Survivors to duration was reported at 20 mg/kg ip dose; 1/5; conditions: route subcutaneous
[35] = test system: L1210; experiment: (§1) Antitumor activity was assessed against L1210 tumors in B6D2F1 mouse by inoculation of 10e5 tumor cells through intravenous route and mean death of animals (treated/control) was reported at 50 mg/kg peroral dose; conditions: route oral
[36] = Antitumor activity was assessed against TLX5 tumors in CBA/CA mouse by inoculation of 2 x 10e5 tumor cells through subcutaneous route and mean death of animals (treated/control) was reported at 40 mg/kg dose
[37] = Antitumor activity was assessed against TLX5 tumors in CBA/CA mouse by inoculation of 2 x 10e5 tumor cells through subcutaneous route and mean death of animals (treated/control) was reported at 20 mg/kg dose
[38] = Antitumor activity was assessed against TLX5 tumors in CBA/CA mouse by inoculation of 2 x 10e5 tumor cells through subcutaneous route and mean death of animals (treated/control) was reported at 320 mg/kg dose
[39] = Antitumor activity was assessed against TLX5 tumors in CBA/CA mouse by inoculation of 2 x 10e5 tumor cells through subcutaneous route and mean death of animals (treated/control) was reported at 160 mg/kg dose
[40] = Antitumor activity was assessed against L1210 tumors in B6D2F1 mouse by inoculation of 10e5 tumor cells through intravenous route and mean death of animals (treated/control) was reported at 200 mg/kg peroral dose; conditions: route oral
[41] = as §1; conditions: route oral
[42] = Antitumor activity was assessed against L1210 tumors in B6D2F1 mouse by inoculation of 10e5 tumor cells through intravenous route and mean death of animals (treated/control) was reported at 100 mg/kg peroral dose; conditions: route oral
[43] = Antitumor activity was assessed against TLX5 tumors in CBA/CA mouse by inoculation of 2 x 10e5 tumor cells through subcutaneous route and number of Survivors to duration was reported at 20 mg/kg ip dose; 3/5
[44] = test system: L1210; experiment: Antitumor activity was assessed against L1210 tumors in B6D2F1 mouse by inoculation of 10e5 tumor cells through intravenous route and number of Survivors to duration was reported at 20 mg/kg peroral dose; 6/7; conditions: route oral
[45] = Antitumor activity was assessed against TLX5 tumors in CBA/CA mouse by inoculation of 2 x 10e5 tumor cells through subcutaneous route and number of Survivors to duration was reported at 40 mg/kg ip dose; 1/5
[46] = Antitumor activity was assessed against TLX5 tumors in CBA/CA mouse by inoculation of 2 x 10e5 tumor cells through subcutaneous route and mean death of animals (treated/control) was reported at 20 mg/kg ip dose
[47] = Antitumor activity was assessed against TLX5 tumors in CBA/CA mouse by inoculation of 2 x 10e5 tumor cells through subcutaneous route and mean death of animals (treated/control) was reported at 40 mg/kg ip dose
[48] = test system: L1210; experiment: Antitumor activity was assessed against L1210 tumors in B6D2F1 mouse by inoculation of 10e5 tumor cells through intravenous route and number of Survivors to duration was reported at 40 mg/kg peroral dose; 1/7; conditions: route oral
[49] = Antitumor activity was assessed against TLX5 tumors in CBA/CA mouse by inoculation of 2 x 10e5 tumor cells through subcutaneous route and number of Survivors to duration was reported at 40 mg/kg ip dose; 4/5
[50] = Antitumor activity was assessed against TLX5 tumors in CBA/CA mouse by inoculation of 2 x 10e5 tumor cells through subcutaneous route and mean death of animals (treated/control) was reported at 10 mg/kg ip dose
[51] = test system: L1210; experiment: Antitumor activity was assessed against L1210 tumors in B6D2F1 mouse by inoculation of 10e5 tumor cells through intravenous route and mean death of animals (treated/control) was reported at 5 mg/kg peroral dose; conditions: route oral
[52] = Antitumor activity was assessed against TLX5 tumors in CBA/CA mouse by inoculation of 2 x 10e5 tumor cells through subcutaneous route and mean death of animals (treated/control) was reported at 5 mg/kg ip dose

NS(=O)(=O)c1ncn2c(=O)n(CCCl)nnc12
T/C [1]: >605%
T/C [2]: >376%
T/C [3]: >476%
Survivors [4]: 6
Survivors [5]: 1
T/C [6]: 207%
Survivors [7]: 5
T/C [8]: 136%
T/C [9]: 160%
T/C [10]: 119%
T/C [11]: 121%

O=C(NCc1ccccc1)c1ncn2c(=O)n(CCCl)nnc12
T/C [12]: 130%
T/C [13]: 183%
T/C [14]: 100%

CS(=O)(=O)c1cnn2c(=O)n(CCCl)nnc12
Survivors [15]: 5
T/C [16]: 155%
T/C [14]: >447%
T/C [17]: 307%

CN(C)C(=O)c1cnn2c(=O)n(CCCl)nnc12
T/C [18]: 109%
Survivors [19]: 10
T/C [20]: 48%
T/C [21]: >248%
T/C [22]: 131%
T/C [23]: >600%
T/C [24]: 250%
T/C [25]: 144%
Survivors [26]: 1

NC(=O)c1cnn2c(=O)n(CCCl)nnc12
T/C [27]: 120%
T/C [18]: 116%
T/C [21]: 221%
T/C [22]: 143%
T/C [23]: 363%
T/C [24]: >530%
T/C [28]: 123%
Survivors [29]: 1
T/C [25]: 186%
Survivors [30]: 5
T/C [31]: 98%

CS(=O)(=O)c1ncn2c(=O)n(CCCl)nnc12
Survivors [32]: 2
T/C [33]: 66%
T/C [16]: 217%
T/C [14]: >310%
Survivors [34]: 1
T/C [35]: 217%
T/C [17]: 257%
T/C [36]: 66%
T/C [37]: >214%

O=C(Nc1ccccc1)c1ncn2c(=O)n(CCCl)nnc12
T/C [33]: 100%
T/C [38]: 98%
T/C [39]: 98%
T/C [36]: 103%
T/C [37]: 98%

NC(=O)c1nc(CCc2ccccc2)n2c(=O)n(CCCl)nnc12
T/C [40]: 100%
T/C [41]: 100%
T/C [42]: 100%

CNS(=O)(=O)c1ncn2c(=O)n(CCCl)nnc12
T/C [33]: 68%
T/C [16]: 283%
T/C [14]: 25%
Survivors [43]: 3
T/C [17]: >666%
T/C [36]: >203%
Survivors [44]: 6
T/C [37]: >375%
Survivors [45]: 1

NC(=O)c1ncn2c(=O)n(CCCl)nnc12 [MITOZOLOMIDE]
T/C [46]: 167%
T/C [16]: 178%
T/C [47]: >458%
Survivors [48]: 1
Survivors [49]: 4
T/C [14]: >330%
T/C [50]: 163%
T/C [17]: 217%
T/C [51]: 133%
T/C [52]: 113%

From ChEMBL document CHEMBL1123898, “Antitumor imidazotetrazines. 14. Synthesis and antitumor activity of 6- and 8-substituted imidazo[5,1-d]-1,2,3,5-tetrazinones and 8-substituted pyrazolo[5,1-d]-1,2,3,5-tetrazinones” (1987)
